Test results taken from ChEMBL document CHEMBL4651402, “Screening of ~5500 FDA-approved drugs and clinical candidates for anti-SARS-CoV-2 activity” (2021).
Square brackets hold non-standard residues; d marks the D form. Peptide text beside a SMILES is read from it. Orn = NCCC[C@H](N)C(=O)O

Test system: SARS-CoV-2
Experiment: microbe, parasite or virus in culture
Conditions: Severe acute respiratory syndrome coronavirus 2, Vero C1008, 48 h

In the case of `CCc1nc(C(N)=O)c(Nc2ccc(N3CCC(N4CCN(C)CC4)CC3)c(OC)c2)nc1NC1CCOCC1` [GILTERITINIB], the IC50 is reported as > 20 µM and the IC50 (read-out: pIC50 (converted)) is reported as > 20 µM.

With `C[C@@H]1C(=O)O[C@H]2C[C@@]34[C@H]5C[C@@H](C(C)(C)C)[C@]36[C@@H](OC(=O)[C@@H]6O)O[C@@]4(C(=O)O5)[C@]21O` [GINKGOLIDE A] the IC50 was > 20 µM and the IC50 (read-out: pIC50 (converted)) was > 20 µM.

`C[C@H]1O[C@@H](O[C@H]2[C@@H](O)C[C@H](O[C@H]3[C@@H](O)C[C@H](O[C@H]4CC[C@@]5(C)[C@H](CC[C@@H]6[C@@H]5CC[C@]5(C)[C@@H](C7=CC(=O)OC7)[C@@H](O)C[C@]65O)C4)O[C@@H]3C)O[C@@H]2C)C[C@H](O)[C@@H]1O` [GITOXIN] was tested, and the IC50 was > 20 µM and the IC50 (read-out: pIC50 (converted)) was > 20 µM.

For `O=C(OCC(O)CO)c1ccccc1Nc1ccnc2cc(Cl)ccc12` (stereo not drawn) [GLAFENINE], the IC50 was > 20 µM and the IC50 (read-out: pIC50 (converted)) was > 20 µM.

With `CC(C)c1nc(-c2ccccc2)cc(-c2ccc(F)cc2)c1/C=C/[C@@H]1C[C@@H](O)CC(=O)O1` [GLENVASTATIN] the IC50 was > 20 µM and the IC50 (read-out: pIC50 (converted)) was > 20 µM.

In the case of `COCCNCc1ccc(-c2cc3nccc(Oc4ccc(NC(=S)NC(=O)Cc5ccc(F)cc5)cc4F)c3s2)nc1` [GLESATINIB], the IC50 is reported as > 20 µM and the IC50 (read-out: pIC50 (converted)) is reported as > 20 µM.

`Cc1ccc(S(=O)(=O)NC(=O)NN2CC3CCCC3C2)cc1` (stereo not drawn) [GLICLAZIDE] was tested, and the IC50 was > 20 µM and the IC50 (read-out: pIC50 (converted)) was > 20 µM.

For `COc1ccc(F)cc1[C@H](C)NC(=O)Cc1ccc(S(=O)(=O)Nc2ncc(CC(C)C)cn2)cc1` [GLIFLUMIDE], the IC50 was > 20 µM and the IC50 (read-out: pIC50 (converted)) was > 20 µM.

For `CCC1=C(C)CN(C(=O)NCCc2ccc(S(=O)(=O)NC(=O)N[C@H]3CC[C@H](C)CC3)cc2)C1=O` [GLIMEPIRIDE], the IC50 was > 20 µM and the IC50 (read-out: pIC50 (converted)) was > 20 µM.

For `Cc1cnc(C(=O)NCCc2ccc(S(=O)(=O)NC(=O)NC3CCCCC3)cc2)cn1` [GLIPIZIDE], the IC50 was > 20 µM and the IC50 (read-out: pIC50 (converted)) was > 20 µM.

In the case of `COc1ccc2c(c1)C(=O)N(CCc1ccc(S(=O)(=O)NC(=O)NC3CCCCC3)cc1)C(=O)C2(C)C` [GLIQUIDONE], the IC50 is reported as > 20 µM and the IC50 (read-out: pIC50 (converted)) is reported as > 20 µM.

With `COc1ccccc1C(=O)NCCc1ccc(S(=O)(=O)NC(=O)NC2CCCC2)cc1` [GLISENTIDE] the IC50 was > 20 µM and the IC50 (read-out: pIC50 (converted)) was > 20 µM.

`Cc1cc(C(=O)NCCc2ccc(S(=O)(=O)NC(=O)NN3CCCCCC3)cc2)no1` [GLISOXEPIDE] was tested, and the IC50 was > 20 µM and the IC50 (read-out: pIC50 (converted)) was > 20 µM.

With `C[C@]1(C(=O)N(CCCC(=O)O)Cc2cccc(Cl)c2)CCN1C(=O)c1csc2ccccc12` [GLPG-0974] the IC50 was > 20 µM and the IC50 (read-out: pIC50 (converted)) was > 20 µM.

With `O=C1O[C@H](CO)[C@@H](O)[C@H](O)[C@H]1O` [GLUCONOLACTONE] the IC50 was > 20 µM and the IC50 (read-out: pIC50 (converted)) was > 20 µM.

In the case of `N[C@H]1C(O)O[C@H](CO)[C@@H](O)[C@@H]1O` (stereo partly drawn) [GLUCOSAMINE], the IC50 is reported as > 20 µM and the IC50 (read-out: pIC50 (converted)) is reported as > 20 µM.

In the case of `N[C@@H](C(=O)O)[C@@H](O)[C@H](O)[C@H](O)CO` [GLUCOSAMINIC ACID], the IC50 is reported as > 20 µM and the IC50 (read-out: pIC50 (converted)) is reported as > 20 µM.

With `N[C@@H](CCC(=O)O)C(=O)O` [GLUTAMIC ACID] the IC50 was > 20 µM and the IC50 (read-out: pIC50 (converted)) was > 20 µM.

`NC(=O)CC[C@H](N)C(=O)O` [GLUTAMINE] was tested, and the IC50 was > 20 µM and the IC50 (read-out: pIC50 (converted)) was > 20 µM.

With `N[C@@H](CCC(=O)N[C@@H](CS)C(=O)NCC(=O)O)C(=O)O` [GLUTATHIONE] the IC50 was > 20 µM and the IC50 (read-out: pIC50 (converted)) was > 20 µM.

For `CCC1(c2ccccc2)CCC(=O)NC1=O` (stereo not drawn) [GLUTETHIMIDE], the IC50 was > 20 µM and the IC50 (read-out: pIC50 (converted)) was > 20 µM.

In the case of `COc1ccc(Cl)cc1C(=O)NCCc1ccc(S(=O)(=O)NC(=O)NC2CCCCC2)cc1` [GLYBURIDE], the IC50 is reported as > 20 µM and the IC50 (read-out: pIC50 (converted)) is reported as > 20 µM.

In the case of `OCC(O)CO` [GLYCERIN], the IC50 is reported as > 20 µM and the IC50 (read-out: pIC50 (converted)) is reported as > 20 µM.

In the case of `CCCCCCCCCCCC(=O)OCC(O)CO` (stereo not drawn) [GLYCEROL MONOLAURATE], the IC50 is reported as > 20 µM and the IC50 (read-out: pIC50 (converted)) is reported as > 20 µM.

For `CCCCCCCCCCCCCCCC(=O)OCC(O)CO` (stereo not drawn) [GLYCEROL MONOPALMITATE], the IC50 was > 20 µM and the IC50 (read-out: pIC50 (converted)) was > 20 µM.

For `O=P(O)(O)OC(CO)CO` [GLYCERYLPHOSPHATE], the IC50 was > 20 µM and the IC50 (read-out: pIC50 (converted)) was > 20 µM.

With `NCC(=O)O` [GLYCINE] the IC50 was > 20 µM and the IC50 (read-out: pIC50 (converted)) was > 20 µM.

With `C[C@H](CCC(=O)NCC(=O)O)[C@H]1CC[C@H]2[C@@H]3[C@H](O)C[C@@H]4C[C@H](O)CC[C@]4(C)[C@H]3C[C@H](O)[C@]12C` [GLYCOCHOLIC ACID] the IC50 was > 20 µM and the IC50 (read-out: pIC50 (converted)) was > 20 µM.

For `O=C(O)CO` [GLYCOLIC ACID], the IC50 was > 20 µM and the IC50 (read-out: pIC50 (converted)) was > 20 µM.

With `C[N+]1(C)CCC(OC(=O)C(O)(c2ccccc2)C2CCCC2)C1` (stereo not drawn) [GLYCOPYRRONIUM] the IC50 was > 20 µM and the IC50 (read-out: pIC50 (converted)) was > 20 µM.

In the case of `CC1(C)[C@@H](O[C@H]2O[C@H](C(=O)O)[C@@H](O)[C@H](O)[C@H]2O[C@@H]2O[C@H](C(=O)O)[C@@H](O)[C@H](O)[C@H]2O)CC[C@]2(C)[C@H]3C(=O)C=C4[C@@H]5C[C@@](C)(C(=O)O)CC[C@]5(C)CC[C@@]4(C)[C@]3(C)CC[C@@H]12` [GLYCYRRHIZIN], the IC50 is reported as > 20 µM and the IC50 (read-out: pIC50 (converted)) is reported as > 20 µM.

With `O=C(NC1CCCCC1)NS(=O)(=O)c1ccc2c(c1)CCC2` [GLYHEXAMIDE] the IC50 was > 20 µM and the IC50 (read-out: pIC50 (converted)) was > 20 µM.

For `COCCOc1cnc(NS(=O)(=O)c2ccccc2)nc1` [GLYMIDINE], the IC50 was > 20 µM and the IC50 (read-out: pIC50 (converted)) was > 20 µM.

`Cc1ccc(S(=O)(=O)NC(=O)NC2CCCCCCC2)cc1` [GLYOCTAMIDE] was tested, and the IC50 was > 20 µM and the IC50 (read-out: pIC50 (converted)) was > 20 µM.

For `CC(C)C[C@H](NC(=O)CNC(=O)[C@H](Cc1ccc(O)cc1)NC(=O)[C@H](CO)NC(=O)[C@H](Cc1c[nH]c2ccccc12)NC(=O)[C@H](Cc1cnc[nH]1)NC(=O)[C@@H]1CCC(=O)N1)C(=O)N[C@@H](CCCNC(=N)N)C(=O)N1CCC[C@H]1C(=O)NCC(N)=O` [GONADORELIN], the IC50 was > 20 µM and the IC50 (read-out: pIC50 (converted)) was > 20 µM.

For `Cc1cc2c(C(C)C)c(O)c(O)c(C=O)c2c(O)c1-c1c(C)cc2c(C(C)C)c(O)c(O)c(C=O)c2c1O` [GOSSYPOL], the IC50 was > 20 µM and the IC50 (read-out: pIC50 (converted)) was > 20 µM.

In the case of `CC(C)C[C@@H]1NC(=O)[C@H](CCCN)NC(=O)[C@H](C(C)C)NC(=O)[C@@H]2CCCN2C(=O)[C@@H](Cc2ccccc2)NC(=O)[C@H](CC(C)C)NC(=O)[C@H](CCCN)NC(=O)[C@H](C(C)C)NC(=O)[C@@H]2CCCN2C(=O)[C@@H](Cc2ccccc2)NC1=O` [GRAMICIDIN S] (cyclo(L[dF]PV[Orn]L[dF]PV[Orn])), the IC50 is reported as > 20 µM and the IC50 (read-out: pIC50 (converted)) is reported as > 20 µM.

With `CN(C)Cc1c[nH]c2ccccc12` [GRAMINE] the IC50 was > 20 µM and the IC50 (read-out: pIC50 (converted)) was > 20 µM.

`CCOC(=O)C(COC(=O)Cc1ccc(NC(=O)c2ccccc2-c2ccc(C(F)(F)F)cc2)c(C(=O)N(C)C)c1)(C(=O)OCC)c1ccccc1` [GRANOTAPIDE] was tested, and the IC50 was > 20 µM and the IC50 (read-out: pIC50 (converted)) was > 20 µM.

In the case of `CCc1nc2c(C)nc(C)cc2n1-c1ccc(CCNC(=O)NS(=O)(=O)c2ccc(C)cc2)cc1` [GRAPIPRANT], the IC50 is reported as > 20 µM and the IC50 (read-out: pIC50 (converted)) is reported as > 20 µM.

`Cn1c(-c2ccc3c(c2)OCO3)cc(=O)c2ccccc21` [GRAVEOLINE] was tested, and the IC50 was > 20 µM and the IC50 (read-out: pIC50 (converted)) was > 20 µM.

`C=C[C@@H]1C[C@]1(NC(=O)[C@@H]1C[C@@H]2CN1C(=O)[C@H](C(C)(C)C)NC(=O)O[C@@H]1C[C@H]1CCCCCc1nc3ccc(OC)cc3nc1O2)C(=O)NS(=O)(=O)C1CC1` [GRAZOPREVIR ANHYDROUS] was tested, and the IC50 was > 20 µM and the IC50 (read-out: pIC50 (converted)) was > 20 µM.

For `COC1=CC(=O)C[C@@H](C)[C@]12Oc1c(Cl)c(OC)cc(OC)c1C2=O` [GRISEOFULVIN], the IC50 was > 20 µM and the IC50 (read-out: pIC50 (converted)) was > 20 µM.

With `CN1C(=O)[C@@H](NC(=O)c2n[nH]c(Cc3ccccc3)n2)COc2ccccc21` [GSK2982772] the IC50 was > 20 µM and the IC50 (read-out: pIC50 (converted)) was > 20 µM.
